Measured values from ChEMBL document CHEMBL5244273, “Tuberculosis: An Overview of the Immunogenic Response, Disease Progression, and Medicinal Chemistry Efforts in the Last Decade toward the Development of Potential Drugs for Extensively Drug-Resistant Tuberculosis Strains” (J Med Chem, 2021).
≈ marks a conversion by molar mass, not a printed value.

Columns and labels:
[1] = tested on: Mycobacterium tuberculosis; assay: Antimycobacterial activity against Mycobacterium tuberculosis H37Rv; type: functional
[2] = Cytotoxicity against Chinese hamster CHO-K1 cells assessed as inhibition of cell growth; type: toxicity, cell-based, Cricetulus griseus
[3] = Selectivity index, ratio of IC50 for cytotoxicity against Chinese hamster CHO-K1 cells to MIC for antimycobacterial activity against Mycobacterium tuberculosis H37Rv; type: toxicity, cell-based; conditions: read-out: Selectivity Index
[4] = tested on: Mycobacterium tuberculosis; assay: Antimycobacterial activity against Mycobacterium tuberculosis H37Rv assessed as inhibition of bacterial growth incubated for 5 days by alamar blue assay; type: functional; conditions: 120 h, time 5 day
[5] = tested on: Mycobacterium tuberculosis; assay: Antitubercular activity against Mycobacterium tuberculosis H37Rv by resazurin microtitre assay; type: functional
[6] = tested on: Mycobacterium tuberculosis; assay: Antitubercular activity against Mycobacterium tuberculosis H37Rv assessed as inhibition of bacterial growth by alamar blue assay; type: functional
[7] = tested on: Mycobacterium tuberculosis; assay: Antimycobacterial activity against Mycobacterium tuberculosis H37Rv […]; type: functional
Staphylococcus aureus = assay: Antibacterial activity against methicillin susceptible Staphylococcus aureus ATCC 29213; type: functional
[8] = tested on: Staphylococcus epidermidis; assay: Antibacterial activity against Staphylococcus epidermidis; type: functional
[9] = tested on: Mycobacterium tuberculosis; assay: Antimycobacterial activity against Mycobacterium tuberculosis H37Rv incubated for 2 weeks; type: functional; conditions: 336 h
[10] = tested on: Mycobacterium tuberculosis; assay: Antimycobacterial activity against Mycobacterium tuberculosis H37Rv incubated for 3 weeks; type: functional; conditions: 504 h
[11] = tested on: Mycobacterium tuberculosis; assay: Antimycobacterial activity against Mycobacterium tuberculosis H37Rv incubated for 4 weeks; type: functional; conditions: 672 h
[12] = tested on: Mycobacterium tuberculosis; assay: Antimycobacterial activity against Mycobacterium tuberculosis H37Rv incubated for 5 weeks; type: functional; conditions: 840 h
[13] = (§1) Cytotoxicity against African green monkey Vero cells; type: toxicity, cell-based, Chlorocebus sabaeus; conditions: African green monkey, Vero cells
[14] = Cytotoxicity against HEK293T cells assessed as reduction in cell viability; type: toxicity, cell-based, HEK-293T; conditions: human
[15] = Cytotoxicity against African green monkey Vero cells assessed as inhibition of cell growth incubated for 72 hrs by MTT assay; type: toxicity, cell-based, Chlorocebus sabaeus
[16] = tested on: Mycobacterium tuberculosis; assay: Antitubercular activity against active stage of Mycobacterium tuberculosis H37Ra; type: functional
[17] = tested on: Mycobacterium tuberculosis; assay: Antitubercular activity against dormant stage of Mycobacterium tuberculosis H37Ra; type: functional
[18] = tested on: Mycobacterium tuberculosis; assay: Antitubercular activity against Mycobacterium tuberculosis H37Rv ATCC 27294 assessed as inhibition of bacterial growth by microplate alamar blue assay; type: functional
[19] = tested on: Mycobacterium tuberculosis; assay: Antitubercular activity against Mycobacterium tuberculosis STB-FJ05349 assessed as inhibition of bacterial growth by microplate alamar blue assay; type: functional
[20] = tested on: Mycobacterium tuberculosis; assay: Antitubercular activity against Mycobacterium tuberculosis STB-FJ05060 assessed as inhibition of bacterial growth by microplate alamar blue assay; type: functional
[21] = tested on: Mycobacterium tuberculosis; assay: Antitubercular activity against Mycobacterium tuberculosis MDR-FJ05120 assessed as inhibition of bacterial growth by microplate alamar blue assay; type: functional
[22] = tested on: Mycobacterium tuberculosis; assay: Antitubercular activity against Mycobacterium tuberculosis MDR-FJ05189 assessed as inhibition of bacterial growth by microplate alamar blue assay; type: functional
[23] = tested on: Mycobacterium tuberculosis; assay: Antitubercular activity against Mycobacterium tuberculosis XDR-FJ05195 assessed as inhibition of bacterial growth by microplate alamar blue assay; type: functional
Vero = assay: as §1; type: toxicity, cell-based, Chlorocebus sabaeus; conditions: chlorocebus sabaeus, vero
Escherichia coli = assay: Antibacterial activity against ESBL negative Escherichia coli ATCC 25922; type: functional

## Sc1nnc(-c2cc3ccccc3o2)o1
[1]
  MIC: 1.3 µg/mL (≈ 5.96 µM)
[2]
  IC50: 34.4 µg/mL (≈ 158 µM)
[3]
  selectivity ratio: 26.4

## Sc1nnc(-c2cc3ccccc3[nH]2)o1
[1]
  MIC: 1.3 µg/mL (≈ 5.98 µM)
[2]
  IC50: 21.6 µg/mL (≈ 99.4 µM)
[3]
  selectivity ratio: 16.6

## Sc1nnc(-c2ccc(I)cc2)o1
[1]
  MIC: 0.9 µg/mL (≈ 2.96 µM)
[2]
  IC50: 46.7 µg/mL (≈ 154 µM)
[3]
  selectivity ratio: 51.8

## Sc1nnc(-c2cc(Br)co2)o1
[1]
  MIC: 1.5 µg/mL (≈ 6.07 µM)
[2]
  IC50: 35.5 µg/mL (≈ 144 µM)
[3]
  selectivity ratio: 25.6

## CN[C@@H]1[C@H](O[C@H]2[C@H](O[C@H]3[C@H](O)[C@@H](O)[C@H](N=C(N)N)[C@@H](O)[C@@H]3N=C(N)N)O[C@@H](C)[C@]2(O)C=O)O[C@@H](CO)[C@H](O)[C@H]1O [STREPTOMYCIN]
[1]
  MIC: 6.25 µg/mL (≈ 10.7 µM)
[4]
  MIC: 6.25 µg/mL (≈ 10.7 µM)
[5]
  MIC: 0.19 µg/mL (≈ 0.327 µM)
[6]
  MIC: 6.25 µg/mL (≈ 10.7 µM)

## CC(=O)N1/C(=C/c2ccc(-c3ccccc3)cc2)C(=O)c2ccccc21
[1]
  MIC90: 1.32 µM (≈ 0.448 µg/mL)
  MIC99: 2.29 µM (≈ 0.777 µg/mL)
[7]
  MIC: 12.3 µM (≈ 4.17 µg/mL)

## CC(=O)N1/C(=C/c2ccc(-c3ccc(C)cc3)cc2)C(=O)c2ccccc21
[1]
  MIC90: 2.71 µM (≈ 0.958 µg/mL)
  MIC99: 4.37 µM (≈ 1.54 µg/mL)
[7]
  MIC: 14.8 µM (≈ 5.23 µg/mL)

## C[C@H]1COc2c(N3CCN(C)CC3)c(F)cc3c(=O)c(C(=O)O)cn1c23.C[C@H]1COc2c(N3CCN(C)CC3)c(F)cc3c(=O)c(C(=O)O)cn1c23.O [LEVOFLOXACIN]
Staphylococcus aureus
  MIC: 0.25 µg/mL
[8]
  MIC: 0.25 µg/mL
[9]
  MIC: 0.25 µg/mL
[10]
  MIC: 0.25 µg/mL
[11]
  MIC: 0.25 µg/mL
[12]
  MIC: 0.25 µg/mL

## CC(=O)N1N=C(c2ccc3oc(-c4ccc(O)cc4)nc3c2)CC1c1cccs1 (stereo not drawn)
[1]
  MIC: 0.8 µg/mL (≈ 1.98 µM)
[13]
  IC50: 32.5 µg/mL (≈ 80.6 µM)

## CC(=O)N1/C(=C/c2ccc(-c3ccc(Cl)cc3)cc2)C(=O)c2ccccc21
[1]
  MIC90: 2.32 µM (≈ 0.867 µg/mL)
  MIC99: 4.05 µM (≈ 1.51 µg/mL)
[7]
  MIC: 8.37 µM (≈ 3.13 µg/mL)
[14]
  CC50: 7 µM

## Cc1cc(O)n2nc(Nc3ccc(F)c(F)c3)c(C(=O)Nc3ccc(F)cc3)c2n1
[4]
  MIC: 0.8 µg/mL (≈ 1.94 µM)
[15]
  IC50 at 72 h: 13.6 µg/mL (≈ 32.8 µM)

## COc1ccccc1NC(=O)c1c(Nc2cccc(C)c2)nn2c(O)cc(C)nc12
[4]
  MIC: 3.12 µg/mL (≈ 7.73 µM)
[15]
  IC50 at 72 h: 21.3 µg/mL (≈ 52.7 µM)

## CC(=O)N1/C(=C/c2ccc(Br)cc2)C(=O)c2ccccc21
[1]
  MIC90: 0.31 µM (≈ 0.106 µg/mL)
  MIC99: 0.37 µM (≈ 0.127 µg/mL)
[7]
  MIC: 15.2 µM (≈ 5.2 µg/mL)

## NC(=O)c1cnccn1 [PYRAZINAMIDE]
[1]
  MIC: 3.12 µg/mL (≈ 25.3 µM)
[4]
  MIC: 3.12 µg/mL (≈ 25.3 µM)
[5]
  MIC: > 200 µg/mL
[6]
  MIC: 3.12 µg/mL (≈ 25.4 µM)

## CCN(CC)CCOc1c(C(=O)OC)c2c3c(oc2c2ccccc12)C(=O)c1ccccc1C3=O
[5]
  MIC50: 0.19 µg/mL (≈ 0.403 µM)

## CO[C@H]1/C=C/O[C@@]2(C)Oc3c(C)c(O)c4c(O)c(c(/C=N/N5CCN(C)CC5)c(O)c4c3C2=O)NC(=O)/C(C)=C\C=C\[C@H](C)[C@H](O)[C@@H](C)[C@@H](O)[C@@H](C)[C@H](OC(C)=O)[C@@H]1C [RIFAMPIN]
[1]
  MIC90: 0.00291 µM (≈ 0.00239 µg/mL)
  MIC99: 0.00482 µM (≈ 0.00397 µg/mL)
[7]
  MIC: 0.377 µM (≈ 0.31 µg/mL)
[16]
  MIC: 0.75 µg/mL (≈ 0.911 µM)
[17]
  MIC: 0.91 µg/mL (≈ 1.11 µM)
[5]
  MIC: 0.049 µg/mL (≈ 0.0595 µM)
[18]
  MIC: 0.125 µg/mL (≈ 0.152 µM)
[19]
  MIC: < 0.5 µg/mL
[20]
  MIC: < 0.5 µg/mL
[21]
  MIC: > 256 µg/mL
[22]
  MIC: > 256 µg/mL
[23]
  MIC: 4 µg/mL (≈ 4.86 µM)

## NNC(=O)c1ccncc1 [ISONIAZID]
[1]
  MIC: 0.5 µg/mL (≈ 3.65 µM)
[4]
  MIC: 0.5 µg/mL (≈ 3.65 µM)
[5]
  MIC: 0.19 µg/mL (≈ 1.39 µM)
[18]
  MIC: 0.125 µg/mL (≈ 0.911 µM)
[19]
  MIC: < 0.5 µg/mL
[20]
  MIC: < 0.5 µg/mL
[21]
  MIC: 4 µg/mL (≈ 29.2 µM)
[22]
  MIC: < 0.5 µg/mL
[23]
  MIC: > 256 µg/mL

## COc1cccc(C(=O)Nc2nc3cc(C4=NN(C(C)=O)C(c5cccs5)C4)ccc3o2)c1 (stereo not drawn)
[1]
  MIC: 1.6 µg/mL (≈ 3.47 µM)
Vero
  IC5: > 62.5 µg/mL

## Cc1ccc(NC(=O)c2c(Nc3ccc(Cl)cc3)nn3c(O)cc(C)nc23)cc1
[4]
  MIC: 3.12 µg/mL (≈ 7.65 µM)
[15]
  IC50 at 72 h: 21 µg/mL (≈ 51.5 µM)

## CC[C@@H](CO)NCCN[C@@H](CC)CO [ETHAMBUTOL]
[5]
  MIC: 0.78 µg/mL (≈ 3.82 µM)

## S=c1[nH]nc(-c2ccccc2)o1
[1]
  MIC: 2.2 µg/mL (≈ 12.3 µM)
[2]
  IC50: 33.3 µg/mL (≈ 187 µM)
[3]
  selectivity ratio: 15.1

## O=C(Nc1nc(-c2ccccn2)cs1)c1ccc(Cl)s1
[18]
  MIC: 0.08 µg/mL (≈ 0.249 µM)
[19]
  MIC: 0.08 µg/mL (≈ 0.249 µM)
[20]
  MIC: 0.08 µg/mL (≈ 0.249 µM)
[21]
  MIC: 0.25 µg/mL (≈ 0.777 µM)
[22]
  MIC: 4 µg/mL (≈ 12.4 µM)
[23]
  MIC: 0.25 µg/mL (≈ 0.777 µM)
Staphylococcus aureus
  MIC: 32 µg/mL (≈ 99.4 µM)
Escherichia coli
  MIC: 256 µg/mL (≈ 795 µM)
[8]
  MIC: 32 µg/mL (≈ 99.4 µM)

## Cc1cc(O)n2nc(Nc3ccc(Cl)c(Cl)c3)c(C(N)=O)c2n1
[4]
  MIC: 6.25 µg/mL (≈ 17.7 µM)
[15]
  IC50 at 72 h: 29 µg/mL (≈ 82.4 µM)

## CC(=O)N1N=C(c2ccc3oc(NC(=O)CCl)nc3c2)CC1c1cccs1 (stereo not drawn)
[1]
  MIC: 6.25 µg/mL (≈ 15.5 µM)
[13]
  IC50: > 62.5 µg/mL
